In data set [1] the target is T1, recombinant human calcitonin receptor (hCT-R) (Homo sapiens, UniProt P30988).
T1 construct: host or cells: human astrocytoma cell line 1321N1
T1 sequence (P30988 25-474): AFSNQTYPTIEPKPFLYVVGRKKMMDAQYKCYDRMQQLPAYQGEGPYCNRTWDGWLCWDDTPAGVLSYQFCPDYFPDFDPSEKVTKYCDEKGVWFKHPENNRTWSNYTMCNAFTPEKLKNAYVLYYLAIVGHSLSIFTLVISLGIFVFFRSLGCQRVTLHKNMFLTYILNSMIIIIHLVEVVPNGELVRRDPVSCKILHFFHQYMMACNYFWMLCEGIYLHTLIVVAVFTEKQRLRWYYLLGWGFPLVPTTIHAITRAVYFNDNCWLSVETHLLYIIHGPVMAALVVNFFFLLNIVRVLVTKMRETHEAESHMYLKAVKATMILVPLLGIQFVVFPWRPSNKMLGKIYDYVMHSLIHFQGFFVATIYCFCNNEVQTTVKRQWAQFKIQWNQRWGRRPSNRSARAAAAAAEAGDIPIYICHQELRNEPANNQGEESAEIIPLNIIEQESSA
The data set can be described thus: hCT-R cAMP assay (AlphaScreen) in 1321N1 cells. It counts as cell-based. The note with it: cAMP formation, 45 min stimulation. Put shortly:
(§1)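 EC50 values come from curve fits over at least 7 peptide concentrations, with cAMP read by AlphaScreen competition after 1 h in the dark. Cells were 1321N1 lines carrying human calcitonin receptor, with RAMP3 co-expressed for AMY3, treated 45 min at room temperature in the presence of IBMX.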
For orientation: Cyclic AMP is a second messenger, typically raised through Gs and lowered through Gi signalling.

Data set [2] is described as follows: Chemical stability, alternative analysis in MilliQ water with pH adjusted, 40° C. (RP-HPLC). It counts as physicochemical. To be noted: for % degradation after 8 days at 40° C. pH4: pH adjusted to 4.0, 8 days; for % degradation after 8 days at 40° C. pH7.5: pH adjusted to 7.5, 8 days; for % degradation after 8 days at 40° C. pH9: pH adjusted to 9.0, 8 days. On the procedure:
In an alternative analysis, peptides were dissolved in MilliQ water and pH adjusted to 4.0, 7.5 or 9.0. Samples were placed in glass vials and incubated at 40° C. The samples were analyzed by RP-HPLC on a C8 column with gradient elution using a trifluoroacetic acid/acetonitrile/water eluent system. The area-percentage (area-%) of the main peak was determined by UV spectroscopy at 220 nm at each sampling time point.
The % degradation was calculated by subtracting the […].
The results of the chemical stability assessment after 8 days of incubation time are summarized as % degradation in Table 3 (below).

The target in data set [3] is T2, recombinant human amylin 3 receptor (hAMYR3) (Homo sapiens, UniProt O60896+P30988).
T2 construct: host or cells: human astrocytoma cell line 1321N1
T2 sequence (P30988 25-474): T1 sequence (P30988 25-474)
T2 sequence (O60896 24-148 partner): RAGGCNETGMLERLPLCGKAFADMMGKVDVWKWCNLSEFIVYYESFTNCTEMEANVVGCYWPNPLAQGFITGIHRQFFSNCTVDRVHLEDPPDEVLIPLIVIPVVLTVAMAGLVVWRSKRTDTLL
The data set can be described thus: hAMYR3 cAMP assay (AlphaScreen) in 1321N1 cells. The note with it: cAMP formation, 45 min stimulation. In kind it is cell-based. Put shortly: as §1

The text below walks through data of patent US11382956B2, “Amylin analogues” (Zealand Pharma A/S, priority 2016, dated 2022).

Usually EC50 stands for the concentration at which the effect is half-maximal.

Numbered stars: 1 amine (or outer) side, 2 acyl side, 3 side chain; on linkers, the order of the positions; unused ones are H or OH. Bridge positions count the residues as written; N and C are the ends. Square brackets hold non-standard residues; d marks the D form. Peptide text beside a SMILES is read from it. * marks the point of attachment. C20 diacid = O=C(O)CCCCCCCCCCCCCCCCCCC(=O)*; γGlu = O=C(O)[C@H](CCC(=O)[*:2])N[*:1]; Hyp = O=C(O)[C@@H]1C[C@@H](O)CN1; NMeI = CC[C@H](C)[C@H](NC)C(=O)O; Aad = N[C@@H](CCCC(=O)O)C(=O)O; hLys = NCCCCC[C@H](N)C(=O)O; Dap = NC[C@H](N)C(=O)O; Sar = CNCC(=O)O

With `CC[C@H](C)[C@@H](C(=O)N[C@@H](CC(C)C)C(=O)N[C@@H](CO)C(=O)N[C@@H](CO)C(=O)N[C@H](C(=O)N[C@@H](CCC(=O)O)C(=O)N[C@H](C(=O)NCC(=O)N[C@@H](CO)C(=O)N[C@@H](CC(N)=O)C(=O)N[C@H](C(=O)N1C[C@H](O)C[C@H]1C(N)=O)[C@@H](C)O)C(C)C)[C@@H](C)O)N(C)C(=O)[C@H](C)NC(=O)CN(C)C(=O)[C@H](Cc1ccccc1)NC(=O)[C@H](CO)NC(=O)[C@H](CO)NC(=O)[C@H](CCCNC(=N)N)NC(=O)[C@H](CCC(N)=O)NC(=O)[C@H](CC(C)C)NC(=O)[C@H](Cc1ccccc1)NC(=O)[C@H](Cc1c[nH]cn1)NC(=O)[C@H](C)NC(=O)[C@H](CC(C)C)NC(=O)[C@H](CCCNC(=N)N)NC(=O)[C@H](CCC(=O)O)NC(=O)[C@@H](NC(=O)[C@H](C)NC(=O)[C@@H]1CCCC(=O)NC[C@H](NC(=O)[C@H](CCCNC(=N)N)NC(=O)CC[C@H](NC(=O)CCCCCCCCCCCCCCCCCCC(=O)O)C(=O)O)C(=O)NCC(=O)N[C@@H]([C@@H](C)O)C(=O)N[C@@H](C)C(=O)N[C@@H]([C@@H](C)O)C(=O)N1)[C@@H](C)O` [Compound 48, [19CD]-isoGlu-R-Dap()-GTAT-Aad()-ATERLAHFLQRSSF-Gly(Me)-A-Ile(Me)-LSSTEVGSNT-Hyp-NH2] ({C20 diacid-γGlu}-R[Dap]GTAT[Aad]ATERLAHFLQRSSF[Sar]A[NMeI]LSSTEVGSNT[Hyp]-NH2; lactam 2-7), the EC50 in data set [1] worked out at 0.107 nM. Further, in data set [2], the “% degradation after 8 days at 40° C. pH4” value turned out to be 1.8%, the “% degradation after 8 days at 40° C. pH7.5” value worked out at 2.3% and the “% degradation after 8 days at 40° C. pH9” value is 2.5%. Also, the EC50 in data set [3] was 0.02 nM.

Regarding `CC[C@H](C)[C@@H](C(=O)N[C@@H](CC(C)C)C(=O)N[C@@H](CO)C(=O)N[C@@H](CO)C(=O)N[C@H](C(=O)N[C@@H](CCC(=O)O)C(=O)N[C@H](C(=O)NCC(=O)N[C@@H](CO)C(=O)N[C@@H](CC(N)=O)C(=O)N[C@H](C(=O)N1C[C@H](O)C[C@H]1C(N)=O)[C@@H](C)O)C(C)C)[C@@H](C)O)N(C)C(=O)[C@H](C)NC(=O)CN(C)C(=O)[C@H](Cc1ccccc1)NC(=O)[C@H](CO)NC(=O)[C@H](CO)NC(=O)[C@H](CCCNC(=N)N)NC(=O)[C@H](CCC(N)=O)NC(=O)[C@H](CC(C)C)NC(=O)[C@H](Cc1ccccc1)NC(=O)[C@H](Cc1c[nH]cn1)NC(=O)[C@H](C)NC(=O)[C@H](CC(C)C)NC(=O)[C@H](CCCNC(=N)N)NC(=O)[C@H](CCC(=O)O)NC(=O)[C@@H](NC(=O)[C@H](C)NC(=O)[C@@H]1CCCCCNC(=O)C[C@H](NC(=O)[C@H](CCCNC(=N)N)NC(=O)CC[C@H](NC(=O)CCCCCCCCCCCCCCCCCCC(=O)O)C(=O)O)C(=O)NCC(=O)N[C@@H]([C@@H](C)O)C(=O)N[C@@H](C)C(=O)N[C@@H]([C@@H](C)O)C(=O)N1)[C@@H](C)O` [Compound 19, [19CD]-isoGlu-RD()GTAT-hLys()-ATERLAHFLQRSSF-Gly(Me)-A-Ile(Me)-LSSTEVGSNT-Hyp-NH2] ({C20 diacid-γGlu}-RDGTAT[hLys]ATERLAHFLQRSSF[Sar]A[NMeI]LSSTEVGSNT[Hyp]-NH2; lactam 2-7), the EC50 in data set [1] was 0.028 nM. Also, in data set [2], the “% degradation after 8 days at 40° C. pH4” value was determined as 3.9%, the “% degradation after 8 days at 40° C. pH7.5” value worked out at 6.2% and the “% degradation after 8 days at 40° C. pH9” value is recorded as 4.2%. Further, the EC50 in data set [3] was 0.006 nM.
